In this experiment the target is HIS-TGFβR1 T204D (Homo sapiens (Human), UniProt P36897, T204D). The experiment in a line: HTRF probe-displacement assay, HIS-TGFβR1 T204D. In kind it is binding. The conditions noted are these: 1 hour at room temperature.

Some results are limits rather than exact numbers.

Chain of HIS-TGFβR1 T204D (P36897 34-503 T204D): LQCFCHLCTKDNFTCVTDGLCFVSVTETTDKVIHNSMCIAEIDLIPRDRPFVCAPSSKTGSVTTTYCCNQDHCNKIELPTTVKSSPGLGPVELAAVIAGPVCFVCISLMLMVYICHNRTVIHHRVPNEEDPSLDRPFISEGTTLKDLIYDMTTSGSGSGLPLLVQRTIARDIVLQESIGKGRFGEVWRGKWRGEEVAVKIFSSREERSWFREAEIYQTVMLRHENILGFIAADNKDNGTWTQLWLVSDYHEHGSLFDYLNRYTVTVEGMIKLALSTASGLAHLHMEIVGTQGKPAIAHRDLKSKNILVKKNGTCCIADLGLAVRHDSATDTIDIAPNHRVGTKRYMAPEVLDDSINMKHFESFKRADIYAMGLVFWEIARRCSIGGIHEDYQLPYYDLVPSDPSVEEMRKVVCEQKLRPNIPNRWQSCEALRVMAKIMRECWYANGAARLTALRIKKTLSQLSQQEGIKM

`OC1CCCCC1NCc1ccn2nc(-c3ccccn3)nc(Nc3ccncc3F)c12` (centres unmarked) [Example 272, 2-[({4-[(3-fluoropyridin-4-yl)amino]-2-(pyridin-2-yl)pyrrolo[2,1-f][1,2,4]triazin-5-yl}methyl)amino]cyclohexan-1-ol] returned an IC50 of 1.1 nM. With `CCC[C@@H](CO)NCc1ccn2nc(-c3ccccn3)nc(Nc3ccncc3F)c12` [Example 273, (2S)-2-[({4-[(3-fluoropyridin-4-yl)amino]-2-(pyridin-2-yl)pyrrolo[2,1-f][1,2,4]triazin-5-yl}methyl)amino]pentan-1-ol] the figure was 1.6 nM; with `CC(O)CCNCc1ccn2nc(-c3ccccn3)nc(Nc3ccncc3F)c12` (centres unmarked) [Example 274, 4-[({4-[(3-fluoropyridin-4-yl)amino]-2-(pyridin-2-yl)pyrrolo[2,1-f][1,2,4]triazin-5-yl}methyl)amino]butan-2-ol], 0.52 nM. Next, `Oc1cccc(N2CCN(Cc3ccn4nc(-c5ccccn5)nc(Nc5ccncc5F)c34)CC2)c1` [Example 275, 3-[4-({4-[(3-fluoropyridin-4-yl)amino]-2-(pyridin-2-yl)pyrrolo[2,1-f][1,2,4]triazin-5-yl}methyl)piperazin-1-yl]phenol]: 0.47 nM; `Fc1cnccc1Nc1nc(-c2ccccn2)nn2ccc(CN3CCN(c4ncccn4)CC3)c12` [Example 276, 3-fluoro-N-[2-(pyridin-2-yl)-5-{[4-(pyrimidin-2-yl)piperazin-1-yl]methyl}pyrrolo[2,1-f][1,2,4]triazin-4-yl]pyridin-4-amine]: 1.6 nM; `OC1(c2ccccc2)CCN(Cc2ccn3nc(-c4ccccn4)nc(Nc4ccncc4F)c23)CC1` [Example 277, 1-({4-[(3-fluoropyridin-4-yl)amino]-2-(pyridin-2-yl)pyrrolo[2,1-f][1,2,4]triazin-5-yl}methyl)-4-phenylpiperidin-4-ol]: 1.5 nM. For `O=c1[nH]c2ccccc2n1C1CCN(Cc2ccn3nc(-c4ccccn4)nc(Nc4ccncc4F)c23)CC1` [Example 278, 1-[1-({4-[(3-fluoropyridin-4-yl)amino]-2-(pyridin-2-yl)pyrrolo[2,1-f][1,2,4]triazin-5-yl}methyl)piperidin-4-yl]-2,3-dihydro-1H-1,3-benzodiazol-2-one], the half-inhibitory concentration (IC50) amounted to 1.8 nM. With `CN1CCC(N(C)Cc2ccn3nc(-c4ccccn4)nc(Nc4ccncc4F)c23)CC1` [Example 279, 3-fluoro-N-(5-{[methyl(1-methylpiperidin-4-yl)amino]methyl}-2-(pyridin-2-yl)pyrrolo[2,1-f][1,2,4]triazin-4-yl)pyridin-4-amine] the figure was 12 nM.

In turn, `CN(C)CCNCc1ccn2nc(-c3ccccn3)nc(Nc3ccncc3F)c12` [Example 280, N-[5-({[2-(dimethylamino)ethyl]amino}methyl)-2-(pyridin-2-yl)pyrrolo[2,1-f][1,2,4]triazin-4-yl]-3-fluoropyridin-4-amine] came in with a half-maximal inhibitory concentration (IC50) of 1.4 nM.

`Fc1cnccc1Nc1nc(-c2ccccn2)nn2ccc(CNCCCn3ccnc3)c12` [Example 281, 3-fluoro-N-[5-({[3-(1H-imidazol-1-yl)propyl]amino}methyl)-2-(pyridin-2-yl)pyrrolo[2,1-f][1,2,4]triazin-4-yl]pyridin-4-amine] had a half-maximal inhibitory concentration (IC50) of 1.6 nM. Next, `Fc1cnccc1Nc1nc(-c2ccccn2)nn2ccc(CNC34CC5CC(CC(C5)C3)C4)c12` [Example 282, N-(5-{[(adamantan-1-yl)amino]methyl}-2-(pyridin-2-yl)pyrrolo[2,1-f][1,2,4]triazin-4-yl)-3-fluoropyridin-4-amine]: 15 nM; `CN1CCN(CCCNCc2ccn3nc(-c4ccccn4)nc(Nc4ccncc4F)c23)CC1` [Example 283, 3-fluoro-N-[5-({[3-(4-methylpiperazin-1-yl)propyl]amino}methyl)-2-(pyridin-2-yl)pyrrolo[2,1-f][1,2,4]triazin-4-yl]pyridin-4-amine]: 12 nM. With `Fc1cnccc1Nc1nc(-c2ccccn2)nn2ccc(CNCCN3CCCCC3)c12` [Example 284, 3-fluoro-N-[5-({[2-(piperidin-1-yl)ethyl]amino}methyl)-2-(pyridin-2-yl)pyrrolo[2,1-f][1,2,4]triazin-4-yl]pyridin-4-amine] the figure was 4.4 nM. Next, `Fc1cnccc1Nc1nc(-c2ccccn2)nn2ccc(CN[C@H]3CCN(Cc4ccccc4)C3)c12` [Example 285, N-[5-({[(3S)-1-benzylpyrrolidin-3-yl]amino}methyl)-2-(pyridin-2-yl)pyrrolo[2,1-f][1,2,4]triazin-4-yl]-3-fluoropyridin-4-amine]: 1.2 nM; `NCCCNCc1ccn2nc(-c3ccccn3)nc(Nc3ccncc3F)c12` [Example 286, N-(5-{[(3-aminopropyl)amino]methyl}-2-(pyridin-2-yl)pyrrolo[2,1-f][1,2,4]triazin-4-yl)-3-fluoropyridin-4-amine]: 2.9 nM. Take `OC[C@@H](O)CNCc1ccn2nc(-c3ccccn3)nc(Nc3ccncc3F)c12` [Example 287, (2S)-3-[({4-[(3-fluoropyridin-4-yl)amino]-2-(pyridin-2-yl)pyrrolo[2,1-f][1,2,4]triazin-5-yl}methyl)amino]propane-1,2-diol]: the IC50 came to 0.84 nM. Next, `O[C@H]1CC[C@H](NCc2ccn3nc(-c4ccccn4)nc(Nc4ccncc4F)c23)CC1` [Example 288, (1R,4R)-4-[({4-[(3-fluoropyridin-4-yl)amino]-2-(pyridin-2-yl)pyrrolo[2,1-f][1,2,4]triazin-5-yl}methyl)amino]cyclohexan-1-ol]: 3.2 nM.

`Fc1cnccc1Nc1nc(-c2cccc(OC(F)(F)F)n2)nn2cccc12` [Example 289, 3-fluoro-N-{2-[6-(trifluoromethoxy)pyridin-2-yl]pyrrolo[2,1-f][1,2,4]triazin-4-yl}pyridin-4-amine] yielded an IC50 of 3 nM. Next, `Fc1cnccc1Nc1nc(-c2ccccn2)nn2ccc(CN3CCOCC3)c12` [Example 290, 3-fluoro-N-[5-(morpholin-4-ylmethyl)-2-(pyridin-2-yl)pyrrolo[2,1-f][1,2,4]triazin-4-yl]pyridin-4-amine]: 1.2 nM. Next, `CC(=O)Nc1cc(Nc2nc(-c3cccc(F)n3)nn3cccc23)ccn1` [Example 291, N-(4-{[2-(6-fluoropyridin-2-yl)pyrrolo[2,1-f][1,2,4]triazin-4-yl]amino}pyridin-2-yl)acetamide]: 0.86 nM; `N#Cc1cc(Nc2nc(-c3cccc(C(F)(F)F)n3)nn3cccc23)ccn1` [Example 292, 4-({2-[6-(trifluoromethyl)pyridin-2-yl]pyrrolo[2,1-f][1,2,4]triazin-4-yl}amino)pyridine-2-carbonitrile]: 360 nM; `CC(=O)Nc1cc(Nc2nc(-c3ccccn3)nn3ccc(CN4CCOCC4)c23)ccn1` [Example 293, N-(4-{[5-(morpholin-4-ylmethyl)-2-(pyridin-2-yl)pyrrolo[2,1-f][1,2,4]triazin-4-yl]amino}pyridin-2-yl)acetamide]: 0.25 nM.

`Fc1cnccc1Nc1nc(-c2ccccn2)nn2ccc(CNCc3ccc4c(c3)OCO4)c12` [Example 294, N-(5-{[(2H-1,3-benzodioxol-5-ylmethyl)amino]methyl}-2-(pyridin-2-yl)pyrrolo[2,1-f][1,2,4]triazin-4-yl)-3-fluoropyridin-4-amine] showed a half-maximal inhibitory concentration (IC50) of 0.4 nM. For the molecule `Cc1nc2ccc(NCc3ccn4nc(-c5ccccn5)nc(Nc5ccncc5F)c34)cc2s1` [Example 295, N-({4-[(3-fluoropyridin-4-yl)amino]-2-(pyridin-2-yl)pyrrolo[2,1-f][1,2,4]triazin-5-yl}methyl)-2-methyl-1,3-benzothiazol-6-amine], the 50% inhibitory concentration (IC50) was determined as 30 nM. `OCC1(CNCc2ccn3nc(-c4ccccn4)nc(Nc4ccncc4F)c23)COC1` [Example 296, (3-{[({4-[(3-fluoropyridin-4-yl)amino]-2-(pyridin-2-yl)pyrrolo[2,1-f][1,2,4]triazin-5-yl}methyl)amino]methyl}oxetan-3-yl)methanol] gave a concentration for half-maximal inhibition (IC50) of less than 0.25 nM. With `Fc1cnccc1Nc1nc(-c2ccccn2)nn2ccc(CNc3ccc(-c4cnco4)cc3)c12` [Example 297, 3-fluoro-N-[5-({[4-(1,3-oxazol-5-yl)phenyl]amino}methyl)-2-(pyridin-2-yl)pyrrolo[2,1-f][1,2,4]triazin-4-yl]pyridin-4-amine] the figure was 71 nM; with `Fc1cnccc1Nc1nc(-c2ccccn2)nn2ccc(CNc3cc(-c4ccccc4)[nH]n3)c12` [Example 298, 3-fluoro-N-(5-{[(5-phenyl-1H-pyrazol-3-yl)amino]methyl}-2-(pyridin-2-yl)pyrrolo[2,1-f][1,2,4]triazin-4-yl)pyridin-4-amine], 27 nM. Molecule `Fc1cnccc1Nc1nc(-c2ccccn2)nn2ccc(CNCC3CNCCO3)c12` (centres unmarked) [Example 299, 3-fluoro-N-(5-{[(morpholin-2-ylmethyl)amino]methyl}-2-(pyridin-2-yl)pyrrolo[2,1-f][1,2,4]triazin-4-yl)pyridin-4-amine] yielded an IC50 of 23 nM. `C[C@@H](NCc1ccn2nc(-c3ccccn3)nc(Nc3ccncc3F)c12)C(C)(C)C` [Example 300, N-[5-({[(2R)-3,3-dimethylbutan-2-yl]amino}methyl)-2-(pyridin-2-yl)pyrrolo[2,1-f][1,2,4]triazin-4-yl]-3-fluoropyridin-4-amine] had a 50% inhibitory concentration (IC50) of 3.3 nM. Next, `CC(C)(NCc1ccn2nc(-c3ccccn3)nc(Nc3ccncc3F)c12)c1ccccn1` [Example 301, 3-fluoro-N-[2-(pyridin-2-yl)-5-({[2-(pyridin-2-yl)propan-2-yl]amino}methyl)pyrrolo[2,1-f][1,2,4]triazin-4-yl]pyridin-4-amine]: 0.58 nM. Next, `CC(C)n1cc(NCc2ccn3nc(-c4ccccn4)nc(Nc4ccncc4F)c23)cn1` [Example 302, 3-fluoro-N-[5-({[1-(propan-2-yl)-1H-pyrazol-4-yl]amino}methyl)-2-(pyridin-2-yl)pyrrolo[2,1-f][1,2,4]triazin-4-yl]pyridin-4-amine]: 1.7 nM; `CN1CCC(CCNCc2ccn3nc(-c4ccccn4)nc(Nc4ccncc4F)c23)CC1` [Example 303, 3-fluoro-N-[5-({[2-(1-methylpiperidin-4-yl)ethyl]amino}methyl)-2-(pyridin-2-yl)pyrrolo[2,1-f][1,2,4]triazin-4-yl]pyridin-4-amine]: 5.4 nM.

(Values after patent US10336761B2, “TGFβ receptor antagonist” (BRISTOL-MYERS SQUIBB COMPANY, priority 2015, dated 2019).)
